# Experimental data taken from patent US9702869B2, “Assays, antibodies, immunogens and compositions related to 5-FU” (WELLSTAT DIAGNOSTICS, LLC, priority 2011, dated 2017).
# Assays:
# mAb 61C6 = assay: Competitive ECL cross-reactivity test in human plasma with and without 5-FU; details: for Cross-Reactivity (%): human plasma, chemicals 10 μg/mL, chemotherapy drugs 100 μg/mL; for cross-reactivity: with and without 5-FU, Table 5
# monoclonal antibody 61C6 = assay: Cross-reactivity evaluation with lyophilized reagents (Bi-mAb-Beads capture, TAG Plus 1-5C-5-FU-BSA detector); type: binding, Balb/c mouse
# Procedure: This experiment was performed to test the specificity of the monoclonal antibody 61C6 against 5-FU analogues, pro-drugs and interference reagents. […] In this Example, the components of 5-FU assay (capture, detector) were lyophilized and the sample (calibrator, controls, and spiked plasma samples) were added directly to the lyophilized reagent pellets.
# The assay was prepared using the following protocol. […] The capture and the detector solutions were aliquoted (20 μL) and lyophilized.
# The assay procedure was as follows. The electrostatic on the surface of the microplate was reduced by using a Zerostat Antistatic Device prior to use. The device was pointed on the surface of the microplate, squeezed and the trigger released a few times across the microplate. 1 lyophilized pellet of each capture and detector reagent was transferred into plate wells using the Vacuum Pick-Up System. A hollow needle tip was attached onto the pick-up pen, and the finger controlled vacuum was used for picking up (the index finger was placed over the hole so that vacuum was drawn through the needle) or releasing pellet (lifting the index finger off of the hole). On a metal plate holder of a Digital Heat Block set at 37±2° C., 50 μL of each calibrator, control, and sample (in this case cross-reactivity panels) were added in duplicate directly into plate wells containing 2 lyophilized pellets. The plate was placed on the Micromix shaker set at Form 8 & Amp 6 for 30 seconds to mix. The plate was then placed in the metal plate holder of a Digital Heat Block set at 37±2° C. The plate was covered with a plate cover and incubated for 5±0.5 minutes.
# [1] = tested on: anti-5-FU 61C6 monoclonal antibody; assay: Assay timing evaluation of competitive 5-FU ECL immunoassay; type: binding, Balb/c mouse; details: 25 ng/mL of 5-FU in charcoal stripped plasma
# antibody 61C6 = assay: 5-FU ECL assay with antibody 61C6, summary of cross-reactivity; type: binding, Balb/c mouse; details: 5-FU assay with antibody 61C6
# Procedure: The capture reagent 1-5C-5-FU-M270 beads appeared to be stable at 2-8° C. for at least 40 hours. […] The functional sensitivity was determined to be approximately 10 ng/mL (which is an estimate of functional sensitivity based on the calibrator curve).
# [2] = Without 5-FU, lyophilized reagents, human plasma
Molecule,Cross-Reactivity (%) (mAb 61C6; With 5-FU (379 ng/mL)),Cross-Reactivity (%) (mAb 61C6; Without 5-FU),cross-reactivity (mAb 61C6),% Cross-React (monoclonal antibody 61C6; With 75 ng/mL Spiked 5-FU) [%],% Cross-React (monoclonal antibody 61C6; With 1000 ng/mL Spiked 5-FU) [%],% Cross-React (monoclonal antibody 61C6; [2]) [%],ECL signal compared to CAL1 ([1]; 5 minutes incubation at 37° C.) [%],"ECL signal compared to CAL1 ([1]; other incubation timing (10, 15 minutes)) [%]",cross-reactivity (antibody 61C6)
Nc1nc(=O)c2c([nH]1)NCC(CNc1ccc(C(=O)N[C@@H](CCC(=O)O)C(=O)O)cc1)N2C=O (mixture of isomers) [Folinic Acid],−0.01,0.000,essentially undetectable,0.1,0.0,0.0,–,–,–
"O=c1[nH]cc(F)c(=O)[nH]1 [5-FU, 5-Fluorouracil]",–,–,–,–,–,–,61,78,–
CCCCCOC(=O)Nc1nc(=O)n([C@@H]2O[C@H](C)[C@@H](O)[C@H]2O)cc1F [Capecitabine],−0.13,0.00,–,0.7,0.6,0.0,–,–,–
N.N.[Cl][Pt][Cl] [Cisplatin],−0.04,0.001,essentially undetectable,–,0.1,–,–,–,–
"O=C1NCC(F)C(=O)N1 (centres unmarked) [DH5FU, 5-Fluorodihydropyrimidine-2,4-dione]",1.74,2.62,–,–,1.0,–,–,–,–
CCc1c2c(nc3ccc(OC(=O)N4CCC(N5CCCCC5)CC4)cc13)-c1cc3c(c(=O)n1C2)COC(=O)[C@]3(O)CC [Irinotecan],–,–,essentially undetectable,0.1,0.3,–,–,–,–
CN(Cc1cnc2nc(N)nc(N)c2n1)c1ccc(C(=O)N[C@@H](CCC(=O)O)C(=O)O)cc1 [Methotrexate],−0.02,0.000,essentially undetectable,0.0,0.1,0.0,–,–,–
O=C1[O][Pt]2([NH][C@@H]3CCCC[C@H]3[NH]2)[O]C1=O [Oxaliplatin],0.01,0.000,essentially undetectable,–,0.0,–,–,–,–
O=c1[nH]c(=O)n(C2CCCO2)cc1F (centres unmarked) [Tegafur],15.5,16.2,–,56,45,42,–,–,less than 12%
Cc1cn([C@H]2C[C@H](O)[C@@H](CO)O2)c(=O)[nH]c1=O [Thymidine],0.13,0.05,–,1.0,1.3,0.2,–,–,–
Cc1c[nH]c(=O)[nH]c1=O [Thymine],0.80,0.59,–,2.5,2.2,1.0,–,–,–
O=c1cc[nH]c(=O)[nH]1 [Uracil],0.11,0.94,–,3.4,2.6,1.9,–,–,–
O=c1ccn([C@@H]2O[C@H](CO)[C@@H](O)[C@H]2O)c(=O)[nH]1 [Uridine],0.16,0.21,–,1.6,0.9,0.5,–,–,–
Hemoglobin,–,–,–,0.0,−0.1,0.0,–,–,–
